# Assay results from US20240165196A1, “Beta-Lactamase Inhibitors” (VIB VZW, priority 2021, published 2024).
# Experiments:
# Type in all cases: cell-based
# E. coli TEM-148 = system: E. coli TEM-148; on Interpretation: key: S, susceptible; I, intermediate; R, resistant
# Experimental: (§1) Beta-lactamase clinical samples were collected from University Hospitals Leuven and tested for ESBL production using the disk diffusion method^61. The beta-lactamase reference isolates were purchased from IHMA International Health management associates. Bacterial strains were cultivated in Mueller Hinton Broth (MHB, Difco) at 37° C. Whenever required growth media were supplemented with appropriate antibiotic to the medium or plates (kanamycin 30 μg/mL, L-arabinose 0.5 mg/mL, and IPTG 1 mM/mL). Escherichia coli BL21 (Thermo Fisher Scientific, Belgium) was used for cloning and plasmid amplification. For selection of antibiotic resistance colonies, E. coli carrying plasmids was grown in LB agar plates supplemented with the relevant antibiotic. Bacterial CFU counting was done on blood agar plates (BD Biosciences, Belgium) or MHA agar plates. Species identification and antibiograms for all clinical isolates were performed using MALDI-Tof and VITEK® 2 automated system (BioMérieux, France).
# E. coli TEM-1 ? = system: E. coli TEM-1 ?
# Experimental: as §1
# E. coli TEM-104 = system: E. coli TEM-104; on Interpretation: key: S, susceptible; I, intermediate; R, resistant
# Experimental: as §1
# [1] = system: E. coli clinical isolate, β-lactamase TEM-1; experiment: MIC of ampicillin without/with 30 μg/mL TEM3.2, clinical isolates; settings: isolates year NA, country NA, ampicillin alone
# Experimental: (§2) Moreover, the core sequence of peptide TEM3.0 also occurs in the structurally related SHV β-lactamase (FIG. 2E). Although the C-terminal extension residues H and N have been replaced with physicochemically similar R and Q, respectively (FIG. 2H). […] To quantify the synergy between these four peptides and penicillin G, we performed a so-called checkerboard assay, which allows to compare the activity of two test compounds co-incubated (here peptide and a beta-lactam antibiotic), to their individual activities in isolation. The result from the assay is quantified as the Fractional Inhibitory Concentration Index (FICI), and it is generally accepted that values below 0.5 indicate synergistic effects between the compounds. As a control, we generated a peptide using the same design, but based on a previously identified APR from the β-galactosidase enzyme (BGAL)^16 from E. coli (APR=SVIIWSL, peptide sequence=[…]) that has a MIC value>100 μg/mL on E. coli strain UZ_TEM104. We evaluated the synergy of the peptides with penicillin G in clinical E. coli isolates carrying the TEM (FIG. 2I) or SHV enzymes (FIG. 2J). […] As a further control, we also performed a checkerboard assay with an E. coli strain that was resistant to the aminoglycoside kanamycin and observed no synergy between this unrelated antibiotic and our peptides (FIG. 2L), in line with the notion that we are inhibiting a beta-lactamase but not the aminoglycoside degrading enzyme. […] The list of strains included some that harbored only TEM or SHV, but others contained additional Ambler Class A (CTX-M or OXA) or Class B (VIM and NDM) beta-lactamases. […] In contrast, the presence of the NDM-type […], that does have a high affinity for Ampicillin and that is completely distinct in sequence and structure from TEM and SHV, seemed to completely prevent the effect of the peptide on the beta-lactam sensitivity of the strains in which it occurred (see also further). As it appeared that TEM3.2 had activity in most isolates tested, we decided to focus further analysis on this peptide. Furthermore, we tested the performance of the TEM3.2 peptide in a checkerboard assay on strains carrying ESBL mutants of TEM, i.e. extended-spectrum mutations that cluster around the active site of the enzyme, and not in the aggregation prone region targeted by the peptide, and as expected from our mode of action, we observed synergy with ampicillin on these strains (FIG. 2M).
# (§3) Determination of MIC values using the broth microdilution in the 96-well plate (BD Biosciences, Belgium) according to the EUCAST guideline, which was performed in 96-well polystyrene flat bottom microtiter plates (BD Biosciences). Briefly, a single colony was inoculated into 5 mL Difco™ Mueller Hinton Broth (BD Biosciences Ref 275730) and grown to the end-exponential growth phase in a shaking incubator at 37° C. Cultures were subsequently diluted to an MacFarland (0.5 optical density) then the culture was diluted to reach 10^6 CFU/mL in fresh MHB medium. 50 μl of different concentration of peptides ranging from 128 to 2 μg/mL were serially diluted to the sterile 96-well plate in MHB. 50 μL of the diluted bacteria in MHB were pipetted into 96-well plates to reach the final volume of 100 μL. The bacteria grown with the maximum concentration of carrier and medium were considered as positive and negative controls, respectively. The plates were statically incubated overnight at 37° C. to allow bacterial growth. OD was measured at 590 nm a multipurpose ultraviolet-visible plate reader, and the absorbance of the growth bacteria was measured using absorbance reader. Bacterial growth was also visually inspected and agreed well with the OD reading.
# [2] = system: E. coli clinical isolate, β-lactamase TEM-ESBL; CTX-M-15; NDM-19; experiment: as above; settings: isolate 2017 Qatar, IAI, Abscess; ampicillin alone
# Experimental: as §2, §3
# [3] = system: E. coli clinical isolate, β-lactamase TEM-ESBL; CTX-M-27; experiment: as above; settings: isolate 2017 Romania, UTI, Urine; ampicillin alone
# Experimental: as §2, §3
# [4] = system: E. coli clinical isolate, β-lactamase TEM-ESBL; CTX-M-24; OXA-48; experiment: as above; settings: isolate 2017 Turkey, IAI, Abscess; ampicillin alone
# Experimental: as §2, §3
# [5] = system: E. coli clinical isolate, β-lactamase SHV-2; CTX-M-55; VIM-1; experiment: as above; settings: isolate 2017 Turkey, UTI, Urine; ampicillin alone
# Experimental: as §2, §3
# [6] = system: E. coli clinical isolate, β-lactamase TEM-ESBL; experiment: as above; settings: ampicillin alone
# Experimental: as §2, §3
# [7] = system: E. coli clinical isolate, β-lactamase TEM-ESBL; CTX-M-TYPE; experiment: as above; settings: isolate 2017 France, IAI, Peritoneal Fluid; ampicillin alone
# Experimental: as §2, §3
# [8] = system: E. coli clinical isolate, β-lactamase TEM-ESBL; CTX-M-15; NDM-5; experiment: as above; settings: isolate 2017 Qatar, UTI, Urine; ampicillin alone
# Experimental: as §2, §3
# [9] = system: E. coli clinical isolate, β-lactamase SHV-12; TEM-ESBL; experiment: as above; settings: isolate 2017 Germany, RTI, Bronchi; ampicillin alone
# Experimental: as §2, §3
# E. coli NDM ? a = experiment: antimicrobial susceptibility testing, VITEK 2 AST Cards
# Experimental: as §1
# E. coli NDM ? b = experiment: as above
# Experimental: as §1
# E. coli SH ? (APHA) = experiment: as above
# Experimental: as §1
# E. coli TEM-206 = experiment: as above
# Experimental: as §1
structure (smiles),measurement,setting,value
"CC1(C)S[C@@H]2[C@H](NC(=O)[C@H](N)c3ccccc3)C(=O)N2[C@H]1C(=O)O [ampicillin, Ampicillin]",Interpretation,E. coli TEM-148,R
same,MIC,E. coli TEM-148,≥ 32 mg/L
same,Interpretation,E. coli TEM-1 ?,R
same,MIC,E. coli TEM-1 ?,≥ 32 mg/L
same,Interpretation,E. coli TEM-104,R
same,MIC,E. coli TEM-104,≥ 32 mg/L
same,MIC ampicillin,[1],> 64 mg/L
same,MIC ampicillin,[2],> 64 mg/L
same,MIC ampicillin,[3],> 64 mg/L
same,MIC ampicillin,[4],> 64 mg/L
same,MIC ampicillin,[5],> 64 mg/L
same,MIC ampicillin,"[6]; isolate 2016 Germany, UTI, Urine",> 64 mg/L
same,MIC ampicillin,"[6]; isolate 2016 Lithuania, UTI, Urine",> 64 mg/L
same,MIC ampicillin,"[6]; isolate 2017 Israel, UTI, Urine",> 64 mg/L
same,MIC ampicillin,"[6]; isolate 2017 Portugal, RTI, Bronchi",> 64 mg/L
same,MIC ampicillin,"[6]; isolates 2016 South Africa, IAI, Peritoneal Fluid",> 64 mg/L
same,MIC ampicillin,[7],> 64 mg/L
same,MIC ampicillin,[8],> 64 mg/L
same,MIC ampicillin,[9],> 64 mg/L
same,Interpretation,E. coli NDM ? a,R
same,Interpretation,E. coli NDM ? b,R
same,Interpretation,E. coli SH ? (APHA),R
same,Interpretation,E. coli TEM-206,R
same,MIC,E. coli TEM-206,≥ 32 mg/L
